A short description of the series: In vitro drug release study in PBS buffer. It is filed as physicochemical. Conditions: for percentage released: over 70 days, MSN functionalized bone cement loaded with gentamicin and ibuprofen, FIG. 14; for percentage released from the bone cement: MSN-formulated bone cement loaded with gentamicin and indomethacin, FIG. 15, 80 days stated for gentamicin; for amount released as a percentage to the amount loaded: after 80 days, MSN-functionalized bone cement loaded with gentamicin and vancomycin, FIG. 13; for gentamicin released: FIG. 8. On the procedure: The drug release study was conducted by socking two cylinder samples of each composition in 5 ml PBS buffer (pH 7.4). The sample was put in an incubator shaker operated at 37° C. and 40 rpm. The release medium was withdrawn at predetermined time intervals, and replaced with fresh PBS buffer (5 ml) each time. The accumulative amount of gentamicin released was calculated based on the initial weight of bone cement cylinder and the drug content. The gentamicin release was followed for 80 days.
The o-phthaldialdehyde was used as a derivatizing agent to react with the amino groups of gentamicin and yield chromophoric products. The reaction was carried out making 1 ml of our problem gentamicin in solution react with 1 ml of isopropanol (to avoid the precipitation of the products formed) and 1 ml of o-phthaldialdehyde reagent. After fully mixed, the concentration of gentamicin sulfate was determined by the UV absorbance at 332 nm.
The concentration of ibuprofen, vancomycin and indomethacin was directly determined by UV-vis detection without the presence of reactive reagent.

These results are taken from US9155814B2, “Nanostructured material formulated with bone cement for effective antibiotic delivery” (priority 2009, dated 2015).

Take `CC(C)Cc1ccc(C(C)C(=O)O)cc1` (stereo not drawn) [ibuprofen]: the percentage released worked out at 47%.

With `COc1ccc2c(c1)c(CC(=O)O)c(C)n2C(=O)c1ccc(Cl)cc1` [indomethacin], the “percentage released from the bone cement” value was determined as 15%.

Regarding `CN[C@H](CC(C)C)C(=O)N[C@H]1C(=O)N[C@@H](CC(N)=O)C(=O)N[C@H]2C(=O)N[C@H]3C(=O)N[C@H](C(=O)N[C@H](C(=O)O)c4cc(O)cc(O)c4-c4cc3ccc4O)[C@H](O)c3ccc(c(Cl)c3)Oc3cc2cc(c3O[C@@H]2O[C@H](CO)[C@@H](O)[C@H](O)[C@H]2O[C@H]2C[C@](C)(N)[C@H](O)[C@H](C)O2)Oc2ccc(cc2Cl)[C@H]1O` [vancomycin], the “amount released as a percentage to the amount loaded” value is 31%.

With gentamicin, the “percentage released from the bone cement” value amounted to 51%, the “amount released as a percentage to the amount loaded” value came out at 40.8% and the percentage released is 90%. In addition, the “gentamicin released when loaded alone” value (MSN-functionalized bone cement, gentamicin alone) is 70%. For the same compound, the gentamicin released result (SmartSet HV composite bone cement with 2 wt % of MSN) is listed as “much lower”. Moreover, where the note is “SmartSet HV composite bone cement with 6.0 wt % of MSN”, the gentamicin released result was “more than 55%”.
